This is an account of results in patent US20100160228A1, “METHOD FOR INHIBITING OR STIMULATING ANGIOGENESIS IN AN INDIVIDUAL” (VALTION TEKNILLINEN TUTKIMUSKESKUS, priority 2007, published 2010).

Bounds are passed on as bounds.

Assay type in all cases: cell-based, human
Series [1] deals with HUVEC. The series is described as follows: Transwell chemotaxis assay towards VEGF. As to conditions: vector-transfected HUVEC, FIG. 3D. As for the experimental part:
FIG. 3. TCPTP activity controls VEGF-dependent responses in endothelial cells. (A) HUVEC were transfected with the constitutively active TCPTP (TC37) or vector control (pCG), stimulated or not with VEGF, and stained for VEGFR2 (red) and nuclei (blue) after fixation and permeabilization. Arrows indicate VEGFR2 vesicles. (B) HUVEC were treated as in (A) and subjected to trypsin digestion on ice. VEGFR2 protected from trypsin (=internalized pool) was detected by immunoblotting. The intensities of VEGFR2 bands were quantified and are expressed relative to pCG-VEGF control. A representative experiment out of 2 with similar results is shown. (C) HUVEC were transfected with no oligo, siRNA against TCPTP or a control siRNA, and TCPTP expression was measured using immunoblotting. Cells were treated with 80 ng/ml VEGF and proliferation of sparse cells plated on gelatin was assayed after 16 h using BrdU-based assay (mean±SD; n=4-6; *, p<0.05). (D) HUVEC were transfected as in (A) and chemotaxis towards VEGF was measured using a Transwell assay for 4 hours. Cells adhering to the bottom of the filter were fixed and stained with crystal violet. Number of migrated cells was counted (mean±SEM, n=3).
(§1) FIG. 5. Controlled TCPTP activation inhibits VEGF-driven capillary formation, chemokinesis and chemotaxis. (A) HUVEC were cultured in fibrin gels and treated with or without VEGF and TAT peptides (200 nM). After 24 h the formation of capillary tubes was semiquantitatively scored. (B) HUVEC were plated on gelatin in the presence of the peptides (200 nM) or left untreated for 1 h. The cells were stimulated as indicated and migration of individual cells was tracked using time-lapse microscopy. Cumulative migration distance was plotted for randomly picked individual cells. (C) HUVEC were treated with 200 nM peptides and the transmigration assay was performed as in FIG. 3D. (D) HUVEC were transfected with siRNA against TCPTP or a control siRNA, and TCPTP expression was analysed with immunofluorescence. Equal exposures of TCPTP (green) and DAPI (blue) stainings are shown. 48 h post-transfection cells were subjected to transmigration assay as in […].
Chemotaxis assays. HUVEC electroporated with the DNA or siRNA or non-transfected HUVEC were treated with 200 nM α1TAT, ScrTAT or left untreated for 1 h. Transwell filters (8 μm pore size, Costar, Cambridge, Mass.) were coated with gelatin and medium (RPMI, 4 mM L-glutamine, 10% FBS) and VEGF (100 ng/ml) were added to the lower chamber. Cells were harvested from the culture plates, and transferred into the Transwell inserts (4×10^5 cells/well) in RPMI with 0.2% soybean trypsin inhibitor. […] The inserts were fixed in 4% paraformaldehyde, cells stained with 0.5% crystal violet and the number of migrated cells was counted using a microscope.

The next series concerns VEGFR2. Briefly: VEGFR2 kinase activity from HUVEC lysates (Kinase-Glo Plus). As to conditions: HUVEC treated with no peptide or with scrambled control TAT peptide, FIG. 4B. How it is done:
(A) Serum-starved subconfluent HUVEC were treated for 1 h with α1 integrin cytoplasmic tail fusion peptide (α1TAT) or TAT-scramble control fusion peptide (ScrTAT) (both at 200 nM) followed by VEGF-induction (100 ng/ml, 15 min) where indicated. Cell lysates were resolved on SDS-PAGE and immunoblotted for phosphorylated VEGFR2 (or tubulin as a control). (B) HUVEC were treated as in (A) and VEGFR2 kinase activity (mean±SD, n=3) was measured from the cell lysates. **, p<0.01. (C) Recombinant, purified TCPTP was incubated with α1 or α2 cytoplasmic tail peptides (L-amino acids) or with α1 and scrambled TAT peptides (D-amino acids) and analyzed for phosphatase activity (mean±SD, n=3).
VEGFR2 kinase activity was studied using Kinase-Glo Plus kinase assay kit according to manufacturer's protocol (Promega) with 25 µM ATP. Briefly, HUVEC plated on gelatin were serum-starved overnight, treated with 400 nM α1TAT or ScrTAT or left untreated and stimulated with 100 ng/ml VEGF for 15 min, when indicated. The cells were lysed to ice-cold lysis buffer (1% NP-40, 20 mM Hepes pH 7.4, 150 mM NaCl, 10% glycerol, 2.5 mM EDTA, complete protease inhibitor (Roche) and phosphatase inhibitor coctails I and II (Sigma)). The lysates were incubated in anti-VEGFR2 or control IgG-coated wells with shaking for 2 h and washed 3 times with lysis buffer and 3 times with cold kinase assay buffer (20 mM Hepes pH 8, 0.1 mM Na3VO4, 10 mM MnCl2, 1 mM DTT). Kinase assay was performed for 10 min at +37° C.
For orientation: In Kinase-Glo more light means more ATP remaining.

Series [2] concerns HUVEC. Briefly: Time-lapse chemokinesis assay. As to conditions: HUVEC on gelatin, 4 hours time-lapse, FIG. 5B and FIG. 9. As for the experimental part: as §1
FIG. 9. TCPTP activation by α1-peptide inhibits VEGF induced chemokinesis. HUVEC were plated on gelatin in the presence of the peptides (200 nM) or left untreated for 1 h. The cells were stimulated as indicated and migration of individual cells was tracked using time-lapse microscopy. Representative images of individual cells overlayed with their migration patterns (different colours) at the indicated time points are shown.
Time-lapse chemokinesis assays. HUVEC were plated on gelatin-coated wells and allowed to attach for 1 h in the presence or absence of 200 nM α1TAT or ScrTAT and 20 ng/ml VEGF. Migration of individual cells was recorded at 5 min intervals for 4 h using 20× objective and digital video recording. The migration pathway of at least ten randomly picked cells was tracked using the Metamorph program. The cumulative migration distances were also plotted.

In the case of VEGF, the stimulation of chemotaxis with HUVEC [1] was greater than 2 fold. In addition, the “increase of VEGFR2 kinase activity upon VEGF-stimulation” value with VEGFR2 is “about 10 fold”. Also, the “induction of HUVEC chemokinesis” value with HUVEC [2] stood at 99±25%.
